Values of other authors, collected in patent US20070161636A1, “Method of analyzing physiological function of target substance” (priority 2003, published 2007).
Read-outs that look alike come from different tables or passages of the source.

maximum absorption (max λ) (in ethanol): 523 nm
maximum absorption (max λ) (in water): 517 nm
SMILES: O=C1OC2(c3ccccc31)c1cc(Br)c(O)c(Br)c1Oc1c2cc(Br)c(O)c1Br [eosin, tetrabromofluorescein]
